Laboratory results published in patent US8629173B2, “Solid forms comprising (+)-2-[1-(3-ethoxy-4-methoxyphenyl)-2-methylsulfonylethyl]-4-acetylaminoisoindoline-1,3-dione, compositions thereof, and uses thereof” (Celgene Corporation, priority 2002, dated 2014).
pIC50: −log10 of the molar value. ≈ marks a conversion by molar mass, not a printed value.

Tests used:
[1] = molecular target: PDE3 from human platelets (Homo sapiens, UniProt Q14432); assay: PDE3 enzyme assay; assay type: biochemical
[2] = molecular target: PDE7 purified from Hut78 human T cells (Homo sapiens, UniProt Q13946); assay: PDE7 enzyme assay; assay type: biochemical; conditions: 10 nM cAMP
Procedure: PDE7 is a cAMP-selective PDE expressed mainly in T cells and in skeletal muscle. T cell-derived cytokines such as IL-2 and IFN-γ are potentially regulatable via PDE7 inhibition. […] Compounds were tested against the PDE7 preparation in the presence of 10 nM cAMP as described for PDE4 in Table 1.

[3] = tested on: LPS-induced neutrophilia in the lungs of conscious ferrets; assay: LPS-induced lung neutrophilia ferret model; assay type: in vivo; conditions: Mustela putorius, po, read-out: Inhibition of LPS-induced neutrophilia (ED50)
[4] = physchem; conditions: pH 7.4, aqueous buffer, thermodynamic from solid
[5] = tested on: severe plaque-type psoriasis; assay: Phase 2 open-label pilot study in patients with severe plaque-type psoriasis
[6] = 20 mg orally daily for 29 days plus follow-up
[7] = 20 mg orally daily, 29 days, 17 evaluable
[8] = 20 mg orally daily, Day 29, 8 responders
[9] = 20 mg orally daily, Day 29, 19 enrolled
[10] = 20 mg orally daily, Day 29, of enrolled patients
[11] = Nonresponder, 20 mg orally daily

Chain of PDE3 from human platelets (Q14432 whole entry): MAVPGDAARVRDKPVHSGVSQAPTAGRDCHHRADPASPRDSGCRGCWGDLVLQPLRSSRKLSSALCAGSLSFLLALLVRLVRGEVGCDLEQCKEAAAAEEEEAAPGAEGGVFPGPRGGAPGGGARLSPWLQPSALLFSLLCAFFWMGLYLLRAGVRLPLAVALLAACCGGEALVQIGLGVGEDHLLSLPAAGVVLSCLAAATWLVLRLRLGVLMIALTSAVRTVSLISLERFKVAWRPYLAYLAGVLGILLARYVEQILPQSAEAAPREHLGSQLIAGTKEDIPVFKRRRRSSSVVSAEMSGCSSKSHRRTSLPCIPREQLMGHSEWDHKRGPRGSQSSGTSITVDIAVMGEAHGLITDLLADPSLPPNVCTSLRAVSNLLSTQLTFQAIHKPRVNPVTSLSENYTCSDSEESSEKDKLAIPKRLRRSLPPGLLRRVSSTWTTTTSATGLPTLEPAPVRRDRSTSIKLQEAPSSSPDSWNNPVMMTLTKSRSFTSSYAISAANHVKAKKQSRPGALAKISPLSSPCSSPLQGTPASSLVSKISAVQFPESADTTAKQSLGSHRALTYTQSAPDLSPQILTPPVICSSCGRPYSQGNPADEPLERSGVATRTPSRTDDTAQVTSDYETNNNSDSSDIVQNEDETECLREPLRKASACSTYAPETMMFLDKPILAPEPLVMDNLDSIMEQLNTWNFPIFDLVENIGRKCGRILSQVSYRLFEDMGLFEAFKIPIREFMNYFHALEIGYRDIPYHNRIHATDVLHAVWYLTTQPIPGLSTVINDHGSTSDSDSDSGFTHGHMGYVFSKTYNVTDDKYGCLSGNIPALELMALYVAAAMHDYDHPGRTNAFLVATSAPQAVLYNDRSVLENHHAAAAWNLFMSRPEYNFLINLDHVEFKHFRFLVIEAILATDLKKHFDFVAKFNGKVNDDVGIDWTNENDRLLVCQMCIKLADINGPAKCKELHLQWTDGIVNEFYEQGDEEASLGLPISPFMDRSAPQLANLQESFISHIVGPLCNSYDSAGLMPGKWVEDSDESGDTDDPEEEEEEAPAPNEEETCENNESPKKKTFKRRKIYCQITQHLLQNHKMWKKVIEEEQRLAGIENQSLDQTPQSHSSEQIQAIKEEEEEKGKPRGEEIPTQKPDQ
Chain of PDE7 purified from Hut78 human T cells (Q13946 whole entry): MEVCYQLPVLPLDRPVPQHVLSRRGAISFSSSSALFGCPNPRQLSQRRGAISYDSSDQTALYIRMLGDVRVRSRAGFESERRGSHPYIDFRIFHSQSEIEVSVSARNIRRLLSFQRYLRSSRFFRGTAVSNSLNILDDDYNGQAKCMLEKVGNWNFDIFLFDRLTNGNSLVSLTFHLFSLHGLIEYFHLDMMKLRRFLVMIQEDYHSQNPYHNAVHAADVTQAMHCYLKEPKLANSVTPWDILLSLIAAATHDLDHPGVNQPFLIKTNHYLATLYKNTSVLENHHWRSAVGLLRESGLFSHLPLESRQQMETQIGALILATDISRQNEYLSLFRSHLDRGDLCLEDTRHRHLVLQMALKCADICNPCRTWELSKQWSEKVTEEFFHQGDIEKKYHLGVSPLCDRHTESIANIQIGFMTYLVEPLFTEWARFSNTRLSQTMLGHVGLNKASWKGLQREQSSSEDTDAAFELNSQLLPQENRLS

SMILES: CCOc1cc(C(CS(C)(=O)=O)N2C(=O)c3cccc(NC(C)=O)c3C2=O)ccc1OC (single isomer, unassigned; (+)) [Compound A, (+)-2-[1-(3-ethoxy-4-methoxyphenyl)-2-methylsulfonylethyl]-4-acetylaminoisoindoline-1,3-dione]
- PDE Specificity Ratio PDE4/PDE3 ([1]; from Table 1 data): >1200 fold
- inhibition at 10 µM ([1]; read-out: PDE3 (% inhib at 10 μM)): 20%
- pIC50 [2]: 4.69
- ED50 [3]: 0.8 mg/kg
- solubility [4]: 12 µg/mL (≈ 26.1 µM)
- patients with abnormal HLA-DR that had normal HLA-DR at Day 29 ([5]; 20 mg orally daily): Two
- patients with abnormal ICAM-1 at baseline that had normal ICAM-1 at Day 29 ([5]; 20 mg orally daily): Three
- patients with abnormal K16 at baseline that had normal K16 at Day 29 ([5]; 20 mg orally daily): one
- patients with abnormal fillagrin at baseline that had normal fillagrin at Day 29 ([5]; 20 mg orally daily): three
- treatment-related adverse event: headache ([5]; 20 mg orally daily for 29 days): 26.3%
- treatment-related adverse event: nausea ([5]; 20 mg orally daily for 29 days): 15.8%
- deaths [5, 6]: No deaths
- premature discontinuation due to an adverse event [5, 6]: nor did any patient prematurely discontinue due to an adverse event
- patients with evaluable biopsies demonstrating a 20% reduction in epidermal skin thickness ([5]; 20 mg orally daily for 29 days, Day 29, 15 evaluable): 53.3%
- evaluable patients demonstrating improvement in static Physician's Global Assessment (sPGA) [5, 7]: 52.9%
- evaluable patients showing a reduction from baseline in psoriasis body surface area (BSA) [5, 7]: 58.8%
- mean reduction from baseline in dermal CD83+ cells in responders ([5]; 20 mg orally daily, Day 29): 25.86%
- mean reduction from baseline in epidermal CD83+ cells in responders ([5]; 20 mg orally daily, Day 29): 32.50%
- reduction of CD11c cells in the dermis in responders ([5]; 20 mg orally daily, Day 29): 18.50%
- reduction of CD11c cells in the epidermis in responders ([5]; 20 mg orally daily, Day 29): 40.16%
- decrease of dermal T-cells in responders [5, 8]: 28.79%
- decrease of epidermal T-cells in responders [5, 8]: 42.56%
- enrolled subjects demonstrating improvement in PASI [5, 9]: 73.7%
- patients showing >50% reduction from baseline in total PASI score [5, 9]: 15.8%
- mean reduction of epidermal thickness ([5]; 20 mg orally daily, Day 29, all 15 evaluable subjects, p=0.015): 20.5%
- enrolled patients showing a reduction from baseline in psoriasis BSA [5, 10]: 52.6%
- enrolled patients showing an improvement in sPGA [5, 10]: 47.4%
- overall safety ([5]; 20 mg p.o. QD for 29 days): safe
- Percentage Reduction at Day 29: CD11c, Dermis [5, 11]: −21.19%
- Percentage Reduction at Day 29: CD11c, Epidermis [5, 11]: −2.54%
- Percentage Reduction at Day 29: CD83+, Dermis [5, 11]: +0.46%
- Percentage Reduction at Day 29: CD83+, Epidermis [5, 11]: −16.31%
- Percentage Reduction at Day 29: T-cells, Dermis [5, 11]: −17.34%
- Percentage Reduction at Day 29: T-cells, Epidermis [5, 11]: +8.74%
- Percentage Reduction at Day 29: CD11c, Dermis ([5]; Responder, 20 mg orally daily): −18.50%
- Percentage Reduction at Day 29: CD11c, Epidermis ([5]; Responder, 20 mg orally daily): −40.16%
- Percentage Reduction at Day 29: CD83+, Dermis ([5]; Responder, 20 mg orally daily): −25.86%
- Percentage Reduction at Day 29: CD83+, Epidermis ([5]; Responder, 20 mg orally daily): −32.50%
- Percentage Reduction at Day 29: T-cells, Dermis ([5]; Responder, 20 mg orally daily): −28.79%
- Percentage Reduction at Day 29: T-cells, Epidermis ([5]; Responder, 20 mg orally daily): −42.56%
- reduction of mRNA expression of iNOS in lesional skin (RT-PCR) ([5]; after 29 days of treatment, 20 mg orally daily, p=0.025): 66.5%
